Assay results: US9546152B2 (MERCK SHARP & DOHME CORP., priority 2012, dated 2017)

Tests used:
[1] = molecular target: T1, human orexin-2 receptor (Homo sapiens (Human), UniProt O43614); assay: radioligand binding assay, orexin-2 receptor; settings: membranes prepared from CHO cells expressing the OX2 receptor; read-out: hOX2R BIND hKi
Procedure: (§1) In a typical experiment the OX1 and OX2 receptor antagonistic activity of the compounds of the present invention was determined in accordance with the following experimental method. For intracellular calcium measurements, Chinese hamster ovary (CHO) cells expressing the rat orexin-1 receptor or the human orexin-2 receptor, are grown in Iscove's modified DMEM containing 2 mM L-glutamine, […], 1% hypoxanthine-thymidine supplement, 100 U/ml penicillin, 100 μg/ml streptomycin and 10% heat-inactivated fetal calf serum (FCS). The cells are seeded at 20,000 cells/well into Becton-Dickinson black 384-well clear bottom sterile plates coated with poly-D-lysine. All reagents were from GIBCO-Invitrogen Corp. The seeded plates are incubated overnight at 37° C. and 5% CO2. Ala-6,12 human orexin-A as the agonist is prepared as a 1 mM stock solution in 1% bovine serum albumin (BSA) and diluted in assay buffer (HBSS containing 20 mM HEPES, 0.1% BSA and 2.5 mM probenecid, pH7.4) for use in the assay at a final concentration of 70 pM. Test compounds are prepared as 10 mM stock solution in DMSO, then diluted in 384-well plates, first in DMSO, then assay buffer. On the day of the assay, cells are washed 3 times with 100 μl assay buffer and then incubated for 60 min (37° C., 5% CO2) in 60 μl assay buffer containing 1 μM Fluo-4AM ester, 0.02% pluronic acid, and 1% BSA. The dye loading solution is then aspirated and cells are washed 3 times with 100 μl assay buffer. 30 μl of that same buffer is left in each well. Within the Fluorescent Imaging Plate Reader (FLIPR, Molecular Devices), test compounds are added to the plate in a volume of 25 μl, incubated for 5 min and finally 25 μl of agonist is added. Fluorescence is measured for each well at 1 second intervals for 5 minutes and the height of each fluorescence peak is compared to the height of the fluorescence peak induced by 70 pM Ala-6,12 orexin-A with buffer in place of antagonist. […] Alternatively, compound potency can be assessed by a radioligand binding assay (described in Bergman et. al. Bioorg. Med. Chem. Lett. 2008, 18, 1425-1430) in which the inhibition constant (Ki) is determined in membranes prepared from CHO cells expressing either the OX1 or OX2 receptor. The intrinsic orexin receptor antagonist activity of a compound which may be used in the present invention may be determined by these assays.

[2] = molecular target: rat orexin-1 receptor (Rattus norvegicus (Rat), UniProt P56718); assay: FLIPR Ca2+ Flux Assay, orexin-1 receptor; format: cell-based; settings: CHO cells expressing the rat orexin-1 receptor; agonist 70 pM Ala-6,12 human orexin-A; read-out: hOX1R FLIPR IC50
Procedure: as §1

[3] = molecular target: T1, human orexin-2 receptor; assay: FLIPR Ca2+ Flux Assay, orexin-2 receptor; format: cell-based; settings: CHO cells expressing the human orexin-2 receptor; agonist 70 pM Ala-6,12 human orexin-A; read-out: hOX2R FLIPR IC50
Procedure: as §1

Sequence of rat orexin-1 receptor (P56718 whole entry): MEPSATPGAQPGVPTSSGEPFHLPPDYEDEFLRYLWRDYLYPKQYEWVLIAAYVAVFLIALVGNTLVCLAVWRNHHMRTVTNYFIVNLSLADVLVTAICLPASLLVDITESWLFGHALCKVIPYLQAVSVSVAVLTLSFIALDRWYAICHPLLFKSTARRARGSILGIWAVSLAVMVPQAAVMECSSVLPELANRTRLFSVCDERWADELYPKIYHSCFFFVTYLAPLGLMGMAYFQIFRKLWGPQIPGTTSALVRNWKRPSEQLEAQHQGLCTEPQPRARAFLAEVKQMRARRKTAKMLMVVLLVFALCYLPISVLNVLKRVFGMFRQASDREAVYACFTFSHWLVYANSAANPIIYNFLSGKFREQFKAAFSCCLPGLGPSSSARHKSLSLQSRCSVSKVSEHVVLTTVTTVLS
T1 sequence (O43614 whole entry): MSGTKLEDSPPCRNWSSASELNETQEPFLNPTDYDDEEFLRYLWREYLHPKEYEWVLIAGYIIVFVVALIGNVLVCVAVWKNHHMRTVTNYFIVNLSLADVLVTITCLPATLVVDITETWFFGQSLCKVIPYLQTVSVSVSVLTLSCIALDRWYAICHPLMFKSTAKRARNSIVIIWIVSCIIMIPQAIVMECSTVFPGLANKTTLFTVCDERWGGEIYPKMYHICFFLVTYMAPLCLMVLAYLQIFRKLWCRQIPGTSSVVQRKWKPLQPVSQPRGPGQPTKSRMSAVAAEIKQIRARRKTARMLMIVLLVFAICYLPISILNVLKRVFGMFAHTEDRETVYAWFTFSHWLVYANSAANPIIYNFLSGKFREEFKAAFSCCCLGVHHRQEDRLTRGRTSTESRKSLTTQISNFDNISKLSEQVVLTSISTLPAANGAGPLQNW

Molecule Cc1c(C#N)ccnc1O[C@@H]1CC[C@@H](C)N(C(=O)c2ccccc2-n2nccn2)C1 [Example 1, 3-Methyl-2-{[(3R,6R)-6-methyl-1-{[2-(2H-1,2,3-triazol-2-yl)phenyl]carbonyl}piperidin-3-yl]oxy}pyridine-4-carbonitrile] has a Ki [1] of 0.4 nM, an IC50 [2] of 996 nM and an IC50 [3] of 8 nM.
Molecule COc1ccc(C(=O)N2C[C@H](Oc3nccc(C#N)c3C)CC[C@H]2C)c(-c2ccn(C)n2)n1 [Example 81, 2-{[(3R,6R)-1-{[6-methoxy-2-(1-methyl-1H-pyrazol-3-yl)pyridin-3-yl]carbonyl}-6-methylpiperidin-3-yl]oxy}-3-methylpyridine-4-carbonitrile] has a Ki [1] of 8.4 nM, an IC50 [2] of 10000 nM and an IC50 [3] of 64.6 nM.
In the case of COc1ccc(C(=O)N2C[C@H](Oc3nccc(C#N)c3C)CC[C@H]2C)c(-c2cccnc2)n1 [Example 82, 2-({(3R,6R)-1-[(6-methoxy-2,3′-bypyridin-3-yl)carbonyl]-6-methylpiperidin-3-yl}oxy)-3-methylpyridine-4-carbonitrile], the Ki [1] is reported as 2.4 nM, the IC50 [2] is reported as 8410 nM and the IC50 [3] is reported as 55.4 nM.
For C[C@@H]1CC[C@@H](Oc2nccc(C#N)c2C#N)CN1C(=O)c1ccccc1-n1nccn1 [Example 94, 2-{[(3R,6R)-6-methyl-1-{[2-(2H-1,2,3-triazol-2-yl)phenyl]carbonyl}piperidin-3-yl]oxy}pyridine-3,4-dicarbonitrile], the Ki [1] was 4.4 nM, the IC50 [2] was > 10000 nM and the IC50 [3] was 40 nM.
For Cc1c(C#N)ccnc1O[C@@H]1CC[C@@H](C)N(C(=O)c2cccnc2-c2ccccc2)C1 [Example 60, 3-methyl-2-({(3R,6R)-6-methyl-1-[(2-phenylpyridin-3-yl)carbonyl]piperidin-3-yl}oxy)pyridine-4-carbonitrile], the Ki [1] was 2.6 nM, the IC50 [2] was 4670 nM and the IC50 [3] was 26 nM.
With Cc1ccc(C(=O)N2C[C@H](Oc3nccc(C#N)c3C)CC[C@H]2C)c(-n2nccn2)c1 [Example 8, 3-methyl-2-{[(3R,6R)-6-methyl-1-{[4-methyl-2-(2H-1,2,3-triazol-2-yl)phenyl]carbonyl}piperidin-3-yl]oxy}pyridine-4-carbonitrile] the Ki [1] was 0.6 nM, the IC50 [2] was 861 nM and the IC50 [3] was 11 nM.
Work on COc1c(C#N)ccnc1O[C@@H]1CC[C@@H](C)N(C(=O)c2ccccc2-c2ncccn2)C1 [Example 107, 3-methoxy-2-({(3R,6R)-6-methyl-1-[(2-pyrimidin-2-ylphenyl)carbonyl]piperidin-3-yl}oxy)pyridine-4-carbonitrile] yielded a Ki [1] of 0.4 nM, an IC50 [2] of 2750 nM and an IC50 [3] of 33 nM.
COc1ccc(C(=O)N2C[C@H](Oc3nccc(C#N)c3C)CC[C@H]2C)c(-c2ccccc2)n1 [Example 78, 2-({(3R,6R)-1-[(6-methoxy-2-phenylpyridin-3-yl)carbonyl]-6-methylpiperidin-3-yl}oxy)-3-methylpyridine-4-carbonitrile] was tested, and the Ki [1] was 1.2 nM, the IC50 [2] was 1260 nM and the IC50 [3] was 92 nM.
Cc1c(C#N)ccnc1O[C@@H]1CC[C@@H](C)N(C(=O)c2cc(C#N)ccc2-n2nccn2)C1 [Example 71, 2-{[(3R,6R)-1-{[5-cyano-2-(2H-1,2,3-triazol-2-yl)phenyl]carbonyl}-6-methylpiperidin-3-yl]oxy}-3-methylpyridine-4-carbonitrile] showed a Ki [1] of 5.5 nM, an IC50 [2] of 1850 nM and an IC50 [3] of 40 nM.
Cc1c(C#N)ccnc1O[C@@H]1CC[C@@H](C)N(C(=O)c2ccsc2-c2cscn2)C1 [Example 31, 3-methyl-2-{[(3R,6R)-6-methyl-1-{[2-(1,3-thiazol-4-yl)thiophen-3-yl]carbonyl}piperidin-3-yl]oxy}pyridine-4-carbonitrile] was tested, and the Ki [1] was 0.8 nM, the IC50 [2] was 2030 nM and the IC50 [3] was 11 nM.
Cc1cnn(-c2ccccc2C(=O)N2C[C@H](Oc3nccc(C#N)c3C)CC[C@H]2C)c1 [Example 43, 3-methyl-2-{[(3R,6R)-6-methyl-1-{[2-(4-methyl-1H-pyrazol-1-yl)phenyl]carbonyl}piperidin-3-yl]oxy}pyridine-4-carbonitrile] showed a Ki [1] of 0.9 nM, an IC50 [2] of 722 nM and an IC50 [3] of 10 nM.
Cc1c(C#N)ccnc1O[C@@H]1CC[C@@H](C)N(C(=O)c2cc(F)cnc2-c2nccs2)C1 [Example 35, 2-{[(3R,6R)-1-{[5-fluoro-2-(1,3-thiazol-2-yl)pyridin-3-yl]carbonyl}-6-methylpiperidin-3-yl]oxy}-3-methylpyridine-4-carbonitrile] was tested, and the Ki [1] was 0.3 nM, the IC50 [2] was 453 nM and the IC50 [3] was 13 nM.
Work on Cc1c(C#N)ccnc1O[C@@H]1CC[C@@H](C)N(C(=O)c2ccsc2-n2nccn2)C1 [Example 39, 3-methyl-2-{[(3R,6R)-6-methyl-1-{[2-(2H-1,2,3-triazol-2-yl)thiophen-3-yl]carbonyl}piperidin-3-yl]oxy}pyridine-4-carbonitrile] yielded a Ki [1] of 0.7 nM, an IC50 [2] of 1510 nM and an IC50 [3] of 9 nM.
For Cc1nsc(-c2ccccc2)c1C(=O)N1C[C@H](Oc2nccc(C#N)c2C)CC[C@H]1C [Example 47, 3-methyl-2-({(3R,6R)-6-methyl-1-[(3-methyl-5-phenylisothiazol-4-yl)carbonyl]piperidin-3-yl}oxy)pyridine-4-carbonitrile], the Ki [1] was 4.9 nM, the IC50 [2] was 2360 nM and the IC50 [3] was 82 nM.
With CSc1ccccc1C(=O)N1C[C@H](Oc2nccc(C#N)c2C)CC[C@H]1C [Example 61, 3-methyl-2-{[(3R,6R)-6-methyl-1-{[2-(methylsulfanyl)phenyl]carbonyl}piperidin-3-yl]oxy}pyridine-4-carbonitrile] the Ki [1] was 1.4 nM, the IC50 [2] was 7950 nM and the IC50 [3] was 35 nM.
Work on Cc1nc(-c2ccccc2C(=O)N2C[C@H](Oc3nccc(C#N)c3C)CC[C@H]2C)no1 [Example 42, 3-methyl-2-{[(3R,6R)-6-methyl-1-{[2-(5-methyl-1,2,4-oxadiazol-3-yl)phenyl]carbonyl}piperidin-3-yl]oxy}pyridine-4-carbonitrile] yielded a Ki [1] of 1 nM, an IC50 [2] of 776 nM and an IC50 [3] of 12 nM.
In the case of COc1ccc(C(=O)N2C[C@H](Oc3nccc(C#N)c3C)CC[C@H]2C)c(N(C)C)n1 [Example 87, 2-{[(3R,6R)-1-{[2-(Dimethylamino)-6-methoxypyridin-3-yl]carbonyl}-6-methylpiperidin-3-yl]oxy}-3-methylpyridine-4-carbonitrile], the Ki [1] is reported as 9 nM, the IC50 [2] is reported as > 10000 nM and the IC50 [3] is reported as 69 nM.
With Cc1noc(-c2ccccc2C(=O)N2C[C@H](Oc3nccc(C#N)c3C)CC[C@H]2C)n1 [Example 58, 3-methyl-2-{[(3R,6R)-6-methyl-1-{[2-(3-methyl-1,2,4-oxadiazol-5-yl)phenyl]carbonyl}piperidin-3-yl]oxy}pyridine-4-carbonitrile] the Ki [1] was 0.5 nM, the IC50 [2] was 733 nM and the IC50 [3] was 12 nM.
Cc1c(C#N)ccnc1O[C@@H]1CC[C@@H](C)N(C(=O)c2ccc(CO)cc2-c2ccccc2)C1 [Example 54, 2-{[(3R,6R)-1-{[5-(hydroxymethyl)biphenyl-2-yl]carbonyl}-6-methylpiperidin-3-yl]oxy}-3-methylpyridine-4-carbonitrile] was tested, and the Ki [1] was 3.2 nM, the IC50 [2] was 1390 nM and the IC50 [3] was 37 nM.
In the case of CCc1ccccc1C(=O)N1C[C@H](Oc2nccc(C#N)c2C)CC[C@H]1C [Example 59, 2-({(3R,6R)-1-[(2-ethylphenyl)carbonyl]-6-methylpiperidin-3-yl}oxy)-3-methylpyridine-4-carbonitrile], the Ki [1] is reported as 3.7 nM, the IC50 [2] is reported as > 10000 nM and the IC50 [3] is reported as 31 nM.
Work on COc1ccc(C(=O)N2C[C@H](Oc3nccc(C#N)c3OC)CC[C@H]2C)c(-c2ncccn2)n1 [Example 113, 3-methoxy-2-({(3R,6R)-1-[(6-methoxy-2-pyrimidin-2-ylpyridin-3-yl)carbonyl]-6-methylpiperidin-3-yl}oxy)pyridine-4-carbonitrile] yielded an IC50 [2] of 10000 nM and an IC50 [3] of 108 nM.
COc1c(C#N)ccnc1O[C@@H]1CC[C@@H](C)N(C(=O)c2ccsc2-c2ncccn2)C1 [Example 108, 3-methoxy-2-({(3R,6R)-6-methyl-1-[(2-pyrimidin-2-ylthiophen-3-yl)carbonyl]piperidin-3-yl}oxy)pyridine-4-carbonitrile] showed an IC50 [2] of 713 nM and an IC50 [3] of 14 nM.
